Assay results reported in ChEMBL document CHEMBL4007491, “Structure-based drug design of novel ASK1 inhibitors using an integrated lead optimization strategy” (Bioorg Med Chem Lett, 2017).

Biological target: T1, Mitogen-activated protein kinase kinase kinase 5 (Homo sapiens, UniProt Q99683)
T1 sequence (Q99683 whole entry): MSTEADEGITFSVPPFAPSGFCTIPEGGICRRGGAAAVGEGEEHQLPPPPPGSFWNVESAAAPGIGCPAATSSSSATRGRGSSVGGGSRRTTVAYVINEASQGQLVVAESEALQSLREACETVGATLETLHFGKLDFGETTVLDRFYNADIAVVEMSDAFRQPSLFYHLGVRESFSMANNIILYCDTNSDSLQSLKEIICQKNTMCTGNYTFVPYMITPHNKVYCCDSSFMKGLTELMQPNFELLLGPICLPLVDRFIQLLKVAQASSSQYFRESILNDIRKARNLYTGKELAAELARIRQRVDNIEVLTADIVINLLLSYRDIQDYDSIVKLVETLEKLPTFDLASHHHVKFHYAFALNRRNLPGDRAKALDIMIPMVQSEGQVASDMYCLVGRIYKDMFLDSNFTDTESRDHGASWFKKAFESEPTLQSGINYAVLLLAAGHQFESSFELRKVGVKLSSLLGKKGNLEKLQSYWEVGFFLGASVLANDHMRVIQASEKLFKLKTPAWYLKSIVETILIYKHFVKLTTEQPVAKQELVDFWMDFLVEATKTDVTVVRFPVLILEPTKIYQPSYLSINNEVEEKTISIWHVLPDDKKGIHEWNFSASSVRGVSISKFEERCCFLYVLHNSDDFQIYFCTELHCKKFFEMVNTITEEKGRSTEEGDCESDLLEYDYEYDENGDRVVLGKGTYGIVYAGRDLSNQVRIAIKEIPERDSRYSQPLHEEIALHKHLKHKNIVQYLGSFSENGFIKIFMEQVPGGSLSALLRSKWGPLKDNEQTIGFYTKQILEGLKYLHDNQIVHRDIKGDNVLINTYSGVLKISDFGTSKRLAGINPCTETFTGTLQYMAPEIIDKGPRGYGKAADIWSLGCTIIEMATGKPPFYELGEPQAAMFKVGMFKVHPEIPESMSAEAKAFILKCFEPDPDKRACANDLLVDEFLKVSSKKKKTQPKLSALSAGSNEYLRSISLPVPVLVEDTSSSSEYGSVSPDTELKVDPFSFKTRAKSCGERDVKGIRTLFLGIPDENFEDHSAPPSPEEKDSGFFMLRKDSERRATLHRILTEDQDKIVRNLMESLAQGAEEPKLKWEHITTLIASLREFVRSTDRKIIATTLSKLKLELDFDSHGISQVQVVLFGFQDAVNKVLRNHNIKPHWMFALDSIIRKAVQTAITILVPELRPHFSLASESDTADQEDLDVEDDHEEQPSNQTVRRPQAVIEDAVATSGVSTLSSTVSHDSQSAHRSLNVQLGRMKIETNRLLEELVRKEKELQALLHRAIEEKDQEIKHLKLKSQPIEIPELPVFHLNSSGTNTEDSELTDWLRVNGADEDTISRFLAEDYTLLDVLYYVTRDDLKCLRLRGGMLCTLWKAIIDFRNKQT
Test: Inhibition of ASK1 (unknown origin) using biotin-MBP as substrate after 20 mins by TR-FRET assay

With `COCCn1cc(NC(=O)c2csc(-c3nncn3C(C)C)n2)cn1` the IC50 was 60 nM.
